Data published in paper PMC8704606, “The Artemiside-Artemisox-Artemisone-M1 Tetrad: Efficacies against Blood Stage P. falciparum Parasites, DMPK Properties, and the Case for Artemiside” (Pharmaceutics, 2021).
Where two headings read alike, the source gives them in different places.

Legend:
[1] = tested on: asexual blood stages of Pf W2 (drug resistant); set-up: method as in PMID 29866868, PMID 31998692; conditions: cited from earlier work
P. berghei sporozoites = conditions: cited from earlier work; for Maximum inhibition % P. berghei sporozoites: ref S3; for IC50: luciferase-expressing P. berghei ANKA GFP-Luc-SMcon sporozoites in HepG2 cells, 48 h, ± SD, ref S3 (7)
[2] = tested on: asexual blood stages of Pf NF54 (drug sensitive); set-up: method as in PMID 29866868, PMID 31998692; conditions: asexual blood stage Pf NF54, CQ sensitive; SYBR Green I; ± SEM; cited from earlier work
[3] = tested on: late-stage (LG) Pf NF54 gametocytes; set-up: method as in PMID 29866868; conditions: late-stage gametocytes >90% stages IV-V; 48 h incubation; ± SEM; cited from earlier work
[4] = tested on: asexual blood stages of Pf K1 (drug resistant); set-up: method as in PMID 29866868, PMID 31998692; conditions: cited from earlier work; for IC50: asexual blood stage Pf K1, multidrug resistant, SYBR Green I, ± SEM
[5] = tested on: early-stage (EG) Pf NF54 gametocytes; set-up: method as in PMID 29866868; conditions: early-stage gametocytes >95% stages II-III; 48 h incubation; ± SEM; cited from earlier work
[6] = set-up: method as in PMID 34097488; conditions: cited from earlier work
[7] = tested on: type II tachyzoites (PRU-Luc-GFP); conditions: sc 10 mg/kg/d for 8 days; cited from earlier work
7G8 (CQ resistant) = tested on: 7G8 (CQ resistant); set-up: method as in ref S2; conditions: [3H]-hypoxanthine assay; ref S2; read-out: Antimalarial activities IC50 7G8; cited from earlier work
HepG2 = conditions: cited from earlier work
TM-C2B = tested on: TM-C2B; set-up: method as in ref S2; conditions: [3H]-hypoxanthine assay; ref S2; read-out: Antimalarial activities IC50 TM-C2B; cited from earlier work
[8] = tested on: TM91-C235 (CQ and MFQ resistant); set-up: method as in ref S2; conditions: [3H]-hypoxanthine assay; ref S2; read-out: Antimalarial activities IC50 TM91-C235; cited from earlier work
[9] = tested on: TM93-C1088 (atovaquone and CQ resistant); set-up: method as in ref S2; conditions: [3H]-hypoxanthine assay; ref S2; read-out: Antimalarial activities IC50 TM93-C1088; cited from earlier work
D6 (CQ sensitive) = tested on: D6 (CQ sensitive); set-up: method as in ref S2; conditions: [3H]-hypoxanthine assay; ref S2; read-out: Antimalarial activities IC50 D6; cited from earlier work
[10] = Cytotoxicity (LDH assay) against HepG2 cells; assay type: cell-based; conditions: human
Method: Cytotoxicity against mammalian hepatocellular carcinoma cells (HepG2 cells) was determined using the lactate dehydrogenase assay (LDH, Biovision Inc., Milpitas, CA, USA). […] Compound working solutions were prepared from 10 mM stock solutions (100% DMSO) in complete DMEM to a final DMSO (Sigma-Aldrich) conc. of <0.1% (vol/vol). […] Data analysis was performed using GraphPad Prism (version 6) software.

W2 (CQ resistant) = tested on: W2 (CQ resistant); set-up: method as in ref S2; conditions: [3H]-hypoxanthine assay; ref S2; read-out: Antimalarial activities IC50 W2; cited from earlier work

CO[C@H]1O[C@@H]2O[C@@]3(C)CC[C@H]4[C@H](C)CC[C@@H]([C@H]1C)[C@@]24OO3 [Artemether 3, Artemether]
IC50 ([1]; asexual blood stage Pf W2, multidrug resistant, SYBR Green I, ± SEM): 7 ± 1 nM
RI = IC50 W2/IC50 NF54 [1]: 3.8
Maximum inhibition % P. berghei sporozoites (P. berghei sporozoites; at 10 µM): 49.4%
IC50 (P. berghei sporozoites): > 104 nM
IC50 (P. berghei sporozoites; listed as artemether 3): > 10000 nM
IC50 [2]: 1.86 ± 0.17 nM
IC50 [3]: 136 ± 85.9 nM
IC50 [4]: 9 ± 2 nM
RI (resistance index) = IC50 K1/IC50 NF54 [4]: 4.8
IC50 [5]: 37.7 ± 2 nM
F% (oral bioavailability) [6]: 2%
Cmax ([6]; oral administration, same dose, same murine model): 600 nM

C[C@@H]1CC[C@H]2[C@@H](C)C(=O)O[C@@H]3O[C@@]4(C)CC[C@@H]1[C@]32OO4 [Artemisinin 1, Artemisinin, reference compound]
mice surviving the infection, acute phase [7]: all mice treated with artemisinin succumbed to infection

O=C1C(O)=C([C@H]2CC[C@H](c3ccc(Cl)cc3)CC2)C(=O)c2ccccc21 [Atovaquone]
IC50 (7G8 (CQ resistant)): 3.1 ± 0.9 nM
EC50 (HepG2): > 250 nM
SI = EC50 HepG2/IC50 P. berghei sporozoites (HepG2; ref S3): > 100
Maximum inhibition % P. berghei sporozoites (P. berghei sporozoites; at 0.5 µM): 94.85±2.76%
IC50 (P. berghei sporozoites): 2.52 ± 0.997 nM
IC50 (TM-C2B): 31800 nM
IC50 [8]: 2.2 ± 0.7 nM
IC50 [9]: 18800 nM

CCN(CC)CCCC(C)Nc1ccnc2cc(Cl)ccc12 (stereo not drawn) [Chloroquine]
IC50 (7G8 (CQ resistant)): 84 ± 18 nM
IC50 (D6 (CQ sensitive)): 16 ± 2 nM
IC50 [2]: 10 ± 3 nM
IC50 at 24 h [10]: 58400 nM
IC50 (W2 (CQ resistant)): 195 ± 70 nM
IC50 (TM-C2B): 95 ± 23 nM
IC50 [8]: 70 ± 12 nM
IC50 [4]: 154 ± 14 nM
IC50 [9]: 360 ± 38 nM
